The record followed here is patent US9758527B2, “Cyclohexene derivative, preparation method therefor, and pharmaceutical composition for preventing or treating metabolic diseases, containing same as active ingredient” (HYUNDAI PHARM CO., LTD., priority 2014, dated 2017).

Read-outs that look alike come from different tables or passages of the source.

The target in this assay is T1, G protein-coupled receptor 119 (GPR-119) (Mesocricetus auratus, UniProt A0A1U8CD06).
T1 construct: hamster-derived β-cells containing G protein-coupled receptor 119 (GPR-119), HIT-T15 cells; host or cells: HIT-T15 (hamster pancreatic β-cells)
T1 sequence (A0A1U8CD06 1-334): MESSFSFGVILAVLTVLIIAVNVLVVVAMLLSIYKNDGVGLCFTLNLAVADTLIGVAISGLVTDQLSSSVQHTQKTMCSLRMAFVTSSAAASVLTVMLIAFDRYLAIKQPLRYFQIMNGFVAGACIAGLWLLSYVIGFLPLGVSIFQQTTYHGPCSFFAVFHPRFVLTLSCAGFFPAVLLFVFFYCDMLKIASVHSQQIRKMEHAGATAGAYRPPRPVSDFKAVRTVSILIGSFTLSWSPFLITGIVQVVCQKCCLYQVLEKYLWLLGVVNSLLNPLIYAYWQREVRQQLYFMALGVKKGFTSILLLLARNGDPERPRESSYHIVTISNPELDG
Description: Evaluation of cAMP activity in HIT-T15 cells (HTRF cAMP dynamic kit). As to conditions: cAMP activation. In kind it is cell-based, hamster. In short, it runs like this: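 HIT-T15 cells, 60,000/well, treated next day with compound at six concentrations ([…]) for 1 h at 37° C. Lysate cAMP quantified by HTRF competitive immunoassay (D2-cAMP, cryptate anti-cAMP); activity taken as change in FRET signal relative to DMSO.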

[1] abbreviates: 1 h at 37° C., six concentrations, read-out: EC50.
Setting [2] is: EC50 (nM), 1 h at 37° C., six concentrations.

What is called EC50 is the concentration that produces a half-maximal response. On to `CCc1cnc(N2CCC(COc3ccc(C4=CCC(C(=O)N5CCC(=O)C5)CC4)cc3)CC2)nc1` (centres unmarked) [Example 250, 1-(4-(4-((1-(5-ethylpyrimidin-2-yl)piperidin-4-yl)methoxy)phenyl)cyclohex-3-enecarbonyl)pyrrolidin-3-one], for which the EC50 was 12 nM under setting [1] and at most 50 nM (read-out: EC50 value).
For `CCc1cnc(N2CCC(COc3ccc(C4=CCC(C(=O)N5C/C(=N\OC)C(CO)(CO)C5)CC4)cc3)CC2)nc1` (centres unmarked) [Example 253, (Z)-(3,3-bis(hydroxymethyl)-4-(methoxyimino)pyrrolidin-1-yl)(4-(4-((1-(5-ethylpyrimidin-2-yl)piperidin-4-yl)methoxy)phenyl)cyclohex-3-enyl)methanone], under setting [1], the EC50 was determined as 9 nM.
As to `CCc1cnc(N2CCC(COc3ccc(C4=CCC(C(=O)N5C/C(=N\OC)C6(CN(C(=O)OC(C)(C)C)C6)C5)CC4)cc3)CC2)nc1` (centres unmarked) [Example 254, (Z)-tert-butyl 6-(4-(4-((1-(5-ethylpyrimidin-2-yl)piperidin-4-yl)methoxy)phenyl)cyclohex-3-enecarbonyl)-8-(methoxyimino)-2,6-diazaspiro[3.4]octane-2-carboxylate], the concentration for a half-maximal effect (EC50) under setting [1] turned out to be 10 nM and the 50% effective concentration (EC50) (read-out: EC50 value) was at most 50 nM.
With `CC(C)(C)OC(=O)N1CCC(COc2ccc(C3=CCC(C(=O)N4CCN(CC5CC5)CC4)CC3)cc2)CC1` (centres unmarked) [Example 256, tert-butyl 4-((4-(4-(4-(cyclopropylmethyl)piperazine-1-carbonyl)cyclohex-1-enyl)phenoxy)methyl)piperidine-1-carboxylate], under setting [1], the EC50 is 32 nM.
Consider `CC(C)(C)OC(=O)N1CCC(COc2ccc(C3=CCC(C(=O)N4CCC(F)(F)C4)CC3)cc2)CC1` (centres unmarked) [Example 257, tert-butyl 4-((4-(4-(3,3-difluoropyrrolidine-1-carbonyl)cyclohex-1-enyl)phenoxy)methyl)piperidine-1-carboxylate], for which the EC50 is 8 nM under setting [1] and at most 50 nM (read-out: EC50 value).
In the same order, the values of `CCc1cnc(N2CCC(COc3ccc(C4=CCC(C(=O)N5CCC(F)(F)C5)CC4)cc3)CC2)nc1` (centres unmarked) [Example 258, (3,3-difluoropyrrolidin-1-yl)(4-(4-((1-(5-ethylpyrimidin-2-yl)piperidin-4-yl)methoxy)phenyl)cyclohex-3-enyl)methanone] are 10 nM and at most 50 nM.
Take `CC(C)c1noc(N2CCC(COc3ccc(C4=CCC(C(=O)N5CCC(F)(F)C5)CC4)cc3)CC2)n1` (centres unmarked) [Example 259, (3,3-difluoropyrrolidin-1-yl)(4-(4-((1-(3-isopropyl-1,2,4-oxadiazol-5-yl)piperidin-4-yl)methoxy)phenyl)cyclohex-3-enyl)methanone]: the EC50 was 10 nM under setting [1] and at most 50 nM (read-out: EC50 value).
Take `CC(C)(C)OC(=O)N1CCC(COc2ccc(C3=CCC(C(=O)N4CCC5(CC4)OCCO5)CC3)cc2)CC1` (centres unmarked) [Example 263, tert-butyl 4-((4-(4-(1,4-dioxa-8-azaspiro[4.5]decane-8-carbonyl)cyclohex-1-enyl)phenoxy)methyl)piperidine-1-carboxylate]: it took 9 nM to reach a half-maximal effect under setting [2] (EC50) and the EC50 (EC50 value) is at most 50 nM.
Regarding `CC(C)(C)OC(=O)N1CCC(COc2ccc(C3=CCC(C(=O)N4CCC5(C=Cc6ccccc65)CC4)CC3)cc2)CC1` (centres unmarked) [Example 264, tert-butyl 4-((4-(4-(spiro[indene-1,4′-piperidin]-1′-ylcarbonyl)cyclohex-1-enyl)phenoxy)methyl)piperidine-1-carboxylate], under setting [1], the EC50 is 18 nM.
On to `CC(C)(C)OC(=O)N1CCC(COc2ccc(C3=CCC(C(=O)N4CCC(=O)C4)CC3)cc2)CC1` (centres unmarked) [Example 265, tert-butyl 4-((4-(4-(3-oxopyrrolidine-1-carbonyl)cyclohex-1-enyl)phenoxy)methyl)piperidine-1-carboxylate], for which the EC50 is, setting by setting: under setting [1], 32 nM; (read-out: EC50 value) at most 50 nM.
Taken in the same sequence, the figures for `CC(C)c1noc(N2CCC(COc3ccc(C4=CCC(C(=O)N5CCC(C#N)CC5)CC4)cc3)CC2)n1` (centres unmarked) [Example 266, 1-(4-(4-((1-(3-isopropyl-1,2,4-oxadiazol-5-yl)piperidin-4-yl)methoxy)phenyl)cyclohex-3-enecarbonyl)piperidine-4-carbonitrile] were 12 nM and at most 50 nM.
Regarding `CC(C)c1noc(N2CCC(COc3ccc(C4=CCC(C(=O)N5CCC6(CC5)OCCO6)CC4)cc3)CC2)n1` (centres unmarked) [Example 267, (4-(4-((1-(3-isopropyl-1,2,4-oxadiazol-5-yl)piperidin-4-yl)methoxy)phenyl)cyclohex-3-enyl)(1,4-dioxa-8-azaspiro[4.5]decan-8-yl)methanone], the EC50 reads like this: under setting [2], 21 nM; (EC50 value) at most 50 nM.
Turning to `CCO/N=C1/CCN(C(=O)C2CC=C(c3ccc(OCC4CCN(c5ncc(CC)cn5)CC4)cc3)CC2)C1` (centres unmarked) [Example 269, (3-(ethoxyimino)pyrrolidin-1-yl)(4-(4-((1-(5-ethylpyrimidin-2-yl)piperidin-4-yl)methoxy)phenyl)cyclohex-3-enyl)methanone], the EC50 was 35 nM under setting [1] and at most 50 nM (read-out: EC50 value).
`CON=C1CCN(C(=O)C2CC=C(c3ccc(OCC4CCN(C(=O)OC(C)(C)C)CC4)cc3)CC2)CC1` (centres unmarked) [Example 270, tert-butyl 4-((4-(4-(4-(methoxyimino)piperidine-1-carbonyl)cyclohex-1-enyl)phenoxy)methyl)piperidine-1-carboxylate]: under setting [1], the concentration for a half-maximal effect (EC50) stood at 12 nM.
Consider `CC(C)(C)OC(=O)N1CCC(COc2ccc(C3=CCC(C(=O)N4CCC(=NO)CC4)CC3)cc2)CC1` (centres unmarked) [Example 271, tert-butyl 4-((4-(4-(4-(hydroxyimino)piperidine-1-carbonyl)cyclohex-1-enyl)phenoxy)methyl)piperidine-1-carboxylate], for which the EC50 runs as follows: under setting [1], 13 nM; (read-out: EC50 value) at most 50 nM.
Turning to `CC(C)(C)OC(=O)N1CCC(COc2ccc(C3=CCC(C(=O)N4CCC(=O)CC4)CC3)cc2)CC1` (centres unmarked) [Example 272, tert-butyl 4-((4-(4-(4-oxopiperidine-1-carbonyl)cyclohex-1-enyl)phenoxy)methyl)piperidine-1-carboxylate], the EC50 by setting is: under setting [2], 33 nM; (EC50 value) at most 50 nM.
Take `CO/N=C1\CCN(C(=O)C2CC=C(c3ccc(OCC4CCN(C(=O)OC(C)(C)C)CC4)cc3)CC2)C1` (centres unmarked) [Example 273, tert-butyl 4-((4-(4-(3-(methoxyimino)pyrrolidine-1-carbonyl)cyclohex-1-enyl)phenoxy)methyl)piperidine-1-carboxylate]: the EC50 is, setting by setting: under setting [1], 11 nM; (read-out: EC50 value) at most 50 nM.
In the case of `CCc1cnc(N2CCC(COc3ccc(C4=CCC(C(=O)N5CCC(=O)CC5)CC4)cc3)CC2)nc1` (centres unmarked) [Example 274, 1-(4-(4-((1-(5-ethylpyrimidin-2-yl)piperidin-4-yl)methoxy)phenyl)cyclohex-3-enecarbonyl)piperidin-4-one], the EC50 is 27 nM under setting [2] and at most 50 nM (EC50 value).
Taken in the same sequence, the figures for `CC(C)c1noc(N2CCC(COc3ccc(C4=CCC(C(=O)N5CCC(=O)CC5)CC4)cc3)CC2)n1` (centres unmarked) [Example 275, 1-(4-(4-((1-(3-isopropyl-1,2,4-oxadiazol-5-yl)piperidin-4-yl)methoxy)phenyl)cyclohex-3-enecarbonyl)piperidin-4-one] were 28 nM and at most 50 nM.
`CC(C)c1noc(N2CCC(COc3ccc(C4=CCC(C(=O)N5CCC(=NO)CC5)CC4)cc3)CC2)n1` (centres unmarked) [Example 276, (4-(hydroxyimino)piperidin-1-yl)(4-(4-((1-(3-isopropyl-1,2,4-oxadiazol-5-yl)piperidin-4-yl)methoxy)phenyl)cyclohex-3-enyl)methanone]: the EC50 under setting [1] turned out to be 29 nM.
As for `CON=C1CCN(C(=O)C2CC=C(c3ccc(OCC4CCN(c5nc(C(C)C)no5)CC4)cc3)CC2)CC1` (centres unmarked) [Example 278, (4-(4-((1-(3-isopropyl-1,2,4-oxadiazol-5-yl)piperidin-4-yl)methoxy)phenyl)cyclohex-3-enyl)(4-(methoxyimino)piperidin-1-yl)methanone], the EC50 under setting [1] was found to be 18 nM and the EC50 (read-out: EC50 value) is at most 50 nM.
Taken in the same sequence, the figures for `CON=C1CN(C(=O)C2CC=C(c3ccc(OCC4CCN(c5nc(C(C)C)no5)CC4)cc3)CC2)C1` (centres unmarked) [Example 286, (4-(4-((1-(3-isopropyl-1,2,4-oxadiazol-5-yl)piperidin-4-yl)methoxy)phenyl)cyclohex-3-enyl)(3-(methoxyimino)azetidin-1-yl)methanone] were 37 nM and at most 50 nM.
For `CC(C)c1noc(N2CCC(COc3ccc(C4=CCC(C(=O)N5CC(O)C5)CC4)cc3)CC2)n1` (centres unmarked) [Example 289, (3-hydroxyazetidin-1-yl)(4-(4-((1-(3-isopropyl-1,2,4-oxadiazol-5-yl)piperidin-4-yl)methoxy)phenyl)cyclohex-3-enyl)methanone], the EC50 under setting [1] was found to be 32 nM and the EC50 (read-out: EC50 value) is at most 50 nM.
